In patent publication US7846959B2, “Raf modulators and methods of use” (Exelixis, Inc., priority 2004, dated 2010):

Experiments:
B-Raf = B-Raf (Homo sapiens, UniProt P15056); test: Luciferase-coupled chemiluminescence kinase assay (ATP consumption), B-Raf; format: biochemical; conditions: read-out: bRaf (inhibition indicated as IC50)
Summary of the method: (§1)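 ATP depletion, limited to 25-60%, read by luciferase-luciferin chemiluminescence gives IC50 values. Before the 3 hr ambient-temperature kinase reaction with ATP, compound and […] enzyme were preincubated 30 minutes at room temperature in Tris pH 7.5 buffer with MgCl2, TX-100 and DTT.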

c-Raf = c-Raf (Homo sapiens, UniProt P04049); test: Luciferase-coupled chemiluminescence kinase assay (ATP consumption), c-Raf; format: biochemical; conditions: read-out: cRaf-1 (inhibition indicated as IC50)
Sequence of c-Raf (P04049 whole entry): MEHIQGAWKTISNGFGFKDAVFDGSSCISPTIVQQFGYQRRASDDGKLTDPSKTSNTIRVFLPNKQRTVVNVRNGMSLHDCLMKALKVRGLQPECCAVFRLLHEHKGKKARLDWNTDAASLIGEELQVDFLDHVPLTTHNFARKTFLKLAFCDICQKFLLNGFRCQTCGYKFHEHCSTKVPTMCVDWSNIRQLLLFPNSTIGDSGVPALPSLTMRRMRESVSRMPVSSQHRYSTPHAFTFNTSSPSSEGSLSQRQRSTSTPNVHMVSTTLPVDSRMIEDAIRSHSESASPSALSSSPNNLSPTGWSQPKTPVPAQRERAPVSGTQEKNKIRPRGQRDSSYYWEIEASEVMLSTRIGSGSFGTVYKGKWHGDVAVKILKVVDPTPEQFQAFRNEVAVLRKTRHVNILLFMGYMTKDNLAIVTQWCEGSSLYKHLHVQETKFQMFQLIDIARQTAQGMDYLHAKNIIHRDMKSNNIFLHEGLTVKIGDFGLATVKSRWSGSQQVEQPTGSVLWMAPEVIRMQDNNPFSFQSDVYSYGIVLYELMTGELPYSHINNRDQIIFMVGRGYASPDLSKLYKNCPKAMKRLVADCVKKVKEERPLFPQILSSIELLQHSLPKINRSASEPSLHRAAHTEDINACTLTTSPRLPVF
Summary of the method: as §1

Sequence of B-Raf (P15056 whole entry): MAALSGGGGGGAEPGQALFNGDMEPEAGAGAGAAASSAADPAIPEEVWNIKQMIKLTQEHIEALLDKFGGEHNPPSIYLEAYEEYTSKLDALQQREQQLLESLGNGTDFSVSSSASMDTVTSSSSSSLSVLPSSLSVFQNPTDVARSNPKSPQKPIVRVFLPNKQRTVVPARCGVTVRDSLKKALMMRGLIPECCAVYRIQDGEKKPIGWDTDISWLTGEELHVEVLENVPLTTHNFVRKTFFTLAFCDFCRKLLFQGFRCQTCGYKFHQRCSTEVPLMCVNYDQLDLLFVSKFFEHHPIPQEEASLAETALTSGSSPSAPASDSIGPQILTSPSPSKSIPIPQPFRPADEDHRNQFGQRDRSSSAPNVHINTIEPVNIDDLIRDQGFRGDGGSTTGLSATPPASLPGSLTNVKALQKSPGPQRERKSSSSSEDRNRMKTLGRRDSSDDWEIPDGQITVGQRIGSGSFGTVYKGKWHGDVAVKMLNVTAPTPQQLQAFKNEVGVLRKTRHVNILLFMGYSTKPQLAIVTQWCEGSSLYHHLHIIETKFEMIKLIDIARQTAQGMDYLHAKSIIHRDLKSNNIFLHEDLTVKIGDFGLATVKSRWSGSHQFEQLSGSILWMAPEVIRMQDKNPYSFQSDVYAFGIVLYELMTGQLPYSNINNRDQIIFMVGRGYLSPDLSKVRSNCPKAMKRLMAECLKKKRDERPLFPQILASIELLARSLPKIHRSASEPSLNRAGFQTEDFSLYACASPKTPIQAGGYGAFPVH

Row | IC50 (B-Raf) [nM] | IC50 (c-Raf) [nM] | SMILES
1 | < 100 | < 100 | COC(=O)Nc1nc2ccc(C(=O)c3ccccc3C(=O)Nc3cccc(Cl)c3)cc2[nH]1 [Entry 395, methyl {6-[(2-{[(3-chlorophenyl)amino]carbonyl}phenyl)carbonyl]-1H-benzimidazol-2-yl}carbamate]
2 | < 100 | < 100 | COC(=O)Nc1nc2ccc(C(=O)c3ccccc3C(=O)Nc3cccc(OC)c3)cc2[nH]1 [Entry 397, methyl (6-{[2-({[3-(methyloxy)phenyl]amino}carbonyl)phenyl]carbonyl}-1H-benzimidazol-2-yl)carbamate]
3 | < 100 | < 100 | COC(=O)Nc1nc2ccc(C(=O)c3ccccc3C(=O)Nc3cccc(C(F)(F)F)c3)cc2[nH]1 [Entry 398, methyl (6-{[2-({[3-(trifluoromethyl)phenyl]amino}carbonyl)phenyl]carbonyl}-1H-benzimidazol-2-yl)carbamate]
4 | < 100 | < 100 | COC(=O)Nc1nc2ccc(C(=O)c3ccccc3C(=O)Nc3ccc(F)c(Cl)c3)cc2[nH]1 [Entry 401, methyl {6-[(2-{[(3-chloro-4-fluorophenyl)amino]carbonyl}phenyl)carbonyl]-1H-benzimidazol-2-yl}carbamate]
5 | < 100 | < 100 | COC(=O)Nc1nc2ccc(C(=O)c3ccccc3C(=O)Nc3cc(Cl)ccc3F)cc2[nH]1 [Entry 402, methyl {6-[(2-{[(5-chloro-2-fluorophenyl)amino]carbonyl}phenyl)carbonyl]-1H-benzimidazol-2-yl}carbamate]
6 | < 100 | < 100 | COC(=O)Nc1nc2ccc(C(=O)c3ccccc3C(=O)Nc3ccc(F)c(Br)c3)cc2[nH]1 [Entry 406, methyl {6-[(2-{[(3-bromo-4-fluorophenyl)amino]carbonyl}phenyl)carbonyl]-1H-benzimidazol-2-yl}carbamate]
7 | < 100 | < 100 | COC(=O)Nc1nc2ccc(C(=O)c3ccccc3C(=O)Nc3cccc(Cl)c3F)cc2[nH]1 [Entry 407, methyl {6-[(2-{[(3-chloro-2-fluorophenyl)amino]carbonyl}phenyl)carbonyl]-1H-benzimidazol-2-yl}carbamate]
8 | < 100 | < 100 | COC(=O)Nc1nc2ccc(C(=O)c3ccccc3C(=O)Nc3ccc(F)c(C)c3)cc2[nH]1 [Entry 408, methyl {6-[(2-{[(4-fluoro-3-methylphenyl)amino]carbonyl}phenyl)carbonyl]-1H-benzimidazol-2-yl}carbamate]
9 | < 100 | < 100 | COC(=O)Nc1nc2ccc(C(=O)c3ccccc3C(=O)Nc3cc(Br)c(F)cc3F)cc2[nH]1 [Entry 410, methyl {6-[(2-{[(5-bromo-2,4-difluorophenyl)amino]carbonyl}phenyl)carbonyl]-1H-benzimidazol-2-yl}carbamate]
10 | < 100 | < 100 | COC(=O)Nc1nc2ccc(C(=O)c3ccccc3C(=O)Nc3cc(Cl)c(F)cc3F)cc2[nH]1 [Entry 411, methyl {6-[(2-{[(5-chloro-2,4-difluorophenyl)amino]carbonyl}phenyl)carbonyl]-1H-benzimidazol-2-yl}carbamate]
11 | < 100 | < 100 | C=Cc1cccc(NC(=O)c2ccccc2C(=O)c2ccc3nc(NC(=O)OC)[nH]c3c2)c1 [Entry 413, methyl {6-[(2-{[(3-ethenylphenyl)amino]carbonyl}phenyl)carbonyl]-1H-benzimidazol-2-yl}carbamate]
12 | < 100 | < 100 | C#Cc1cccc(NC(=O)c2ccccc2C(=O)c2ccc3nc(NC(=O)OC)[nH]c3c2)c1F [Entry 414, methyl {6-[(2-{[(3-ethynyl-2-fluorophenyl)amino]carbonyl}phenyl)carbonyl]-1H-benzimidazol-2-yl}carbamate]
13 | < 100 | < 100 | C=Cc1cccc(NC(=O)c2ccccc2C(=O)c2ccc3nc(NC(=O)OC)[nH]c3c2)c1F [Entry 418, methyl {6-[(2-{[(3-ethenyl-2-fluorophenyl)amino]carbonyl}phenyl)carbonyl]-1H-benzimidazol-2-yl}carbamate]
14 | < 100 | < 100 | COC(=O)Nc1nc2ccc(C(=O)c3ccccc3C(=O)Nc3cc(C)ccc3F)cc2[nH]1 [Entry 419, methyl {6-[(2-{[(2-fluoro-5-methylphenyl)amino]carbonyl}phenyl)carbonyl]-1H-benzimidazol-2-yl}carbamate]
